Test results reported in ChEMBL document CHEMBL5291721, “A preclinical secondary pharmacology resource illuminates target-adverse drug reaction associations of marketed drugs” (Nat Commun, 2023).

What was measured:
[1] = target: Melanocortin receptor 3 (Homo sapiens, UniProt P41968)
[2] = target: Mu-type opioid receptor (Homo sapiens, UniProt P35372); assay: biochemical; format: functional
[3] = target: T1, 5-hydroxytryptamine receptor 1A (Homo sapiens, UniProt P08908); format: functional, cell-based
T1 sequence (P08908 whole entry): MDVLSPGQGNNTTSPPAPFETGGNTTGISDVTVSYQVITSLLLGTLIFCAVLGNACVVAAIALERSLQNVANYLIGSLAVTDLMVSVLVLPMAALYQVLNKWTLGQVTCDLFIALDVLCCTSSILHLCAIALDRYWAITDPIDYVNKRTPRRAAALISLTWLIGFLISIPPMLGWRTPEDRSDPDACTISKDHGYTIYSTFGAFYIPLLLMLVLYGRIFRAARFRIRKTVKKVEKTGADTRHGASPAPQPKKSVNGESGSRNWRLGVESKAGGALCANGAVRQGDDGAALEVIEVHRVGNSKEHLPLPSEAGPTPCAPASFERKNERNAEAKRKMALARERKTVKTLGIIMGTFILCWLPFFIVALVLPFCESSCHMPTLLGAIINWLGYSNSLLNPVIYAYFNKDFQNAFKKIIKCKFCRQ

[4] = target: Beta-2 adrenergic receptor (Homo sapiens, UniProt P07550); format: functional, cell-based
[5] = target: T2, B2 bradykinin receptor (Homo sapiens, UniProt P30411)
T2 sequence (P30411 whole entry): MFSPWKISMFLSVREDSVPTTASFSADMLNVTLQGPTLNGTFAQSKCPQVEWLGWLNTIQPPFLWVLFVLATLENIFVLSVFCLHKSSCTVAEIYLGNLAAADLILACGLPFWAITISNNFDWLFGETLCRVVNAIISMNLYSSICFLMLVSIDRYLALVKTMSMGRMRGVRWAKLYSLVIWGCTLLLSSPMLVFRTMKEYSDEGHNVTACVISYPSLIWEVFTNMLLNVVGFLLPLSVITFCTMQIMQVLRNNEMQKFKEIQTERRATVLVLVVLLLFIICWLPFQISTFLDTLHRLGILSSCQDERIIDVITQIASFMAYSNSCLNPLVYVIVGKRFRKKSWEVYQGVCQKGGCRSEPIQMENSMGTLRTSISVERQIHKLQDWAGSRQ

[6] = target: 5-hydroxytryptamine receptor 2A (Homo sapiens, UniProt P28223); format: functional, cell-based
[7] = target: Vasopressin V1a receptor (Homo sapiens, UniProt P37288)
[8] = target: Kappa-type opioid receptor (Homo sapiens, UniProt P41145)
[9] = target: T1, 5-hydroxytryptamine receptor 1A; format: functional, cell-based; remark: listed apart in the source
[10] = target: 3',5'-cyclic-AMP phosphodiesterase 4D (Homo sapiens, UniProt Q08499); format: functional
[11] = target: T3, Progesterone receptor (Homo sapiens, UniProt P06401); format: functional
T3 sequence (P06401 whole entry): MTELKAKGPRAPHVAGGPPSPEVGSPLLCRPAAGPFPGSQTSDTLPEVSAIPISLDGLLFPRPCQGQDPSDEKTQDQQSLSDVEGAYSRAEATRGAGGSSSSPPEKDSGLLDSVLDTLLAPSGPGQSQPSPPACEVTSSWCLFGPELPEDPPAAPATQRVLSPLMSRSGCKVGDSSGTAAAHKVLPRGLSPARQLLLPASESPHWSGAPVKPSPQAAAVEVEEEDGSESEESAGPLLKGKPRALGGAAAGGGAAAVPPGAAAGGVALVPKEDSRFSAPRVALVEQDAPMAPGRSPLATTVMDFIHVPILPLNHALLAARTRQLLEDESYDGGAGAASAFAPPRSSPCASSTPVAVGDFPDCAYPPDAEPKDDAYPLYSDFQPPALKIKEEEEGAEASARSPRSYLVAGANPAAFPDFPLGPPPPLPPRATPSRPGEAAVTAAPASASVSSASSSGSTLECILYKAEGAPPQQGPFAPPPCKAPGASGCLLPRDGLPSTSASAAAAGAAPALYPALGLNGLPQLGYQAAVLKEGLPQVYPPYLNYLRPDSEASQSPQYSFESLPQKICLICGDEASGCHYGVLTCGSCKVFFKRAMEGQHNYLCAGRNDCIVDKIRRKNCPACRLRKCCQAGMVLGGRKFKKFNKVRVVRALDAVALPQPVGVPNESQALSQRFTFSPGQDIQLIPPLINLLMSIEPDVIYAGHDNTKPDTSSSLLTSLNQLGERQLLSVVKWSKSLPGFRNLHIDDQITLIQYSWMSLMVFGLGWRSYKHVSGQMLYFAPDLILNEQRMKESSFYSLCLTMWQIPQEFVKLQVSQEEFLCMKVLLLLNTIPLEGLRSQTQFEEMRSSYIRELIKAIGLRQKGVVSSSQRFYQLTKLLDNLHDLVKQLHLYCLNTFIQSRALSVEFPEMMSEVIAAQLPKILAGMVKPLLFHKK

[12] = target: Melanocortin receptor 4 (Homo sapiens, UniProt P32245)
[13] = target: Cannabinoid receptor 1 (Homo sapiens, UniProt P21554)
Note: assay procedure not described here.

Chain of Vasopressin V1a receptor (P37288 whole entry): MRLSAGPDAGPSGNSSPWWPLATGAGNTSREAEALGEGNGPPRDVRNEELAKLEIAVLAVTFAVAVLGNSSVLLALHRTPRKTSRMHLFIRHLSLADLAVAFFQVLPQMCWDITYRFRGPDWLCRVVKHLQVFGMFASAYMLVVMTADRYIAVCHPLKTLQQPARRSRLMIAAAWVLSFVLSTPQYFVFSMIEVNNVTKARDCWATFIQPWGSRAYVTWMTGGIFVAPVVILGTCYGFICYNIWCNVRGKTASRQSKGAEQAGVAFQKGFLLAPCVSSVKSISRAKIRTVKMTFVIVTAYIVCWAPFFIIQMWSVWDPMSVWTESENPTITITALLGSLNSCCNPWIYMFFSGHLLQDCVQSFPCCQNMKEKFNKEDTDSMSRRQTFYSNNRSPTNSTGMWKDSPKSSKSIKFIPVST
Chain of Mu-type opioid receptor (P35372 whole entry): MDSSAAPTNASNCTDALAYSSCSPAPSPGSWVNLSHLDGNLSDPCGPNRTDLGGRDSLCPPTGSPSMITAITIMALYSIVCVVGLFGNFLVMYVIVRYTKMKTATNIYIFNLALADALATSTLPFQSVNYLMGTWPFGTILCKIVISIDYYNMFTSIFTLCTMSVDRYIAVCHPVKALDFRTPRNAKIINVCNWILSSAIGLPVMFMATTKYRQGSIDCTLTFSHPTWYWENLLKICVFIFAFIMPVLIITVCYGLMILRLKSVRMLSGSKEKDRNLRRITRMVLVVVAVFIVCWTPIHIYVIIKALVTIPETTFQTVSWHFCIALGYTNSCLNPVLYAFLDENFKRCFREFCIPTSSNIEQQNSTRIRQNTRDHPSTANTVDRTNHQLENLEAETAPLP
Chain of Cannabinoid receptor 1 (P21554 whole entry): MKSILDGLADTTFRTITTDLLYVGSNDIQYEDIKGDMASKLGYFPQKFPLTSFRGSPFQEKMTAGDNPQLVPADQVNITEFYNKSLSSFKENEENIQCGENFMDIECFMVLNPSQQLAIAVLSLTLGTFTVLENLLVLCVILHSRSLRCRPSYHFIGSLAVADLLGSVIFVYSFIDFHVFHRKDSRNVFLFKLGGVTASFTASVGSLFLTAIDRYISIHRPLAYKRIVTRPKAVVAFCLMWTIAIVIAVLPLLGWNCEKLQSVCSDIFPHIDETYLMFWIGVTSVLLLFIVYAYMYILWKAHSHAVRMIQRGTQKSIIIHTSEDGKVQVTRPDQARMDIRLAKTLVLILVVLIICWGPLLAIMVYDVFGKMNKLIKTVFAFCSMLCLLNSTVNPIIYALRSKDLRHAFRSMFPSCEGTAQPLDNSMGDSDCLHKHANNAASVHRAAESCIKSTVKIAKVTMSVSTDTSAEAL
Chain of Melanocortin receptor 3 (P41968 whole entry): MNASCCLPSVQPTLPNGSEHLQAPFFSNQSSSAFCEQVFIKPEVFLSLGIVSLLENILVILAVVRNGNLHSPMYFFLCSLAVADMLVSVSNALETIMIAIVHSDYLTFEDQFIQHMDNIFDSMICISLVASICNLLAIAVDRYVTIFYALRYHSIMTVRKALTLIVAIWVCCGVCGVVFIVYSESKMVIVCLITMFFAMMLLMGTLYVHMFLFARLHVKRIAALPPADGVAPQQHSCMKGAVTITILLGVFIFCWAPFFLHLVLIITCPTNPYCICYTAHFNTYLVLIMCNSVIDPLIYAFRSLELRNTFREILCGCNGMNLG
Chain of 5-hydroxytryptamine receptor 2A (P28223 whole entry): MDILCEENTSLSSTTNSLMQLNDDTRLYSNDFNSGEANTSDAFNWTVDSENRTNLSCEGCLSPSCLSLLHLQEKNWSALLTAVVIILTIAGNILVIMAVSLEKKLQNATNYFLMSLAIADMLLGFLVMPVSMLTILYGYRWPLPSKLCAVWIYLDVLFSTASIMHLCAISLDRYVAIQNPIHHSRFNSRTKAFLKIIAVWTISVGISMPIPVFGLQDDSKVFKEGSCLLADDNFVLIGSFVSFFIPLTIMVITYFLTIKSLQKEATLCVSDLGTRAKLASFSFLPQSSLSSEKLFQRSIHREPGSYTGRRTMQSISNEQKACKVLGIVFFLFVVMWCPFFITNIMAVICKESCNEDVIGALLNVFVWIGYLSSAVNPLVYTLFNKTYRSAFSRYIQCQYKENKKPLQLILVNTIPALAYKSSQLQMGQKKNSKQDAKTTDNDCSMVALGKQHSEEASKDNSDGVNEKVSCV
Chain of Melanocortin receptor 4 (P32245 whole entry): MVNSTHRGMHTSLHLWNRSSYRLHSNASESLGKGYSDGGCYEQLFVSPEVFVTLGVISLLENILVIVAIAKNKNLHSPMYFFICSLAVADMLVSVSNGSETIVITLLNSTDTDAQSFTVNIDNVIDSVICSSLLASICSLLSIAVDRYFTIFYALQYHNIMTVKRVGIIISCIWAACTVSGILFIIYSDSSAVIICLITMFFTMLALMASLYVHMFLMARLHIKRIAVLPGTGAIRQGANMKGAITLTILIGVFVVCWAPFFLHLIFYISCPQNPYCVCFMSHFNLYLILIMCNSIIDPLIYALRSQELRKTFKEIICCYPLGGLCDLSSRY
Chain of Beta-2 adrenergic receptor (P07550 whole entry): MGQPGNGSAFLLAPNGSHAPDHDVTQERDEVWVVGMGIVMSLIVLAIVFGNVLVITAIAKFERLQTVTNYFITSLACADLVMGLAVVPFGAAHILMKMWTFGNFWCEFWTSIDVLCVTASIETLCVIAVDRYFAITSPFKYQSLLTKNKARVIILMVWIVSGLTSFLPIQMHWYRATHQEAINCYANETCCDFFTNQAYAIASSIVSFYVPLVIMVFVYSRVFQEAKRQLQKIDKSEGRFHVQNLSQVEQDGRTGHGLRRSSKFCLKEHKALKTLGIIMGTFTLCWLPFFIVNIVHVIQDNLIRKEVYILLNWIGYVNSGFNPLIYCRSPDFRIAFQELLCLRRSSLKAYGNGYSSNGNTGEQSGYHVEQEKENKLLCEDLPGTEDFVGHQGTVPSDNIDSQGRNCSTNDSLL
Chain of 3',5'-cyclic-AMP phosphodiesterase 4D (Q08499 whole entry): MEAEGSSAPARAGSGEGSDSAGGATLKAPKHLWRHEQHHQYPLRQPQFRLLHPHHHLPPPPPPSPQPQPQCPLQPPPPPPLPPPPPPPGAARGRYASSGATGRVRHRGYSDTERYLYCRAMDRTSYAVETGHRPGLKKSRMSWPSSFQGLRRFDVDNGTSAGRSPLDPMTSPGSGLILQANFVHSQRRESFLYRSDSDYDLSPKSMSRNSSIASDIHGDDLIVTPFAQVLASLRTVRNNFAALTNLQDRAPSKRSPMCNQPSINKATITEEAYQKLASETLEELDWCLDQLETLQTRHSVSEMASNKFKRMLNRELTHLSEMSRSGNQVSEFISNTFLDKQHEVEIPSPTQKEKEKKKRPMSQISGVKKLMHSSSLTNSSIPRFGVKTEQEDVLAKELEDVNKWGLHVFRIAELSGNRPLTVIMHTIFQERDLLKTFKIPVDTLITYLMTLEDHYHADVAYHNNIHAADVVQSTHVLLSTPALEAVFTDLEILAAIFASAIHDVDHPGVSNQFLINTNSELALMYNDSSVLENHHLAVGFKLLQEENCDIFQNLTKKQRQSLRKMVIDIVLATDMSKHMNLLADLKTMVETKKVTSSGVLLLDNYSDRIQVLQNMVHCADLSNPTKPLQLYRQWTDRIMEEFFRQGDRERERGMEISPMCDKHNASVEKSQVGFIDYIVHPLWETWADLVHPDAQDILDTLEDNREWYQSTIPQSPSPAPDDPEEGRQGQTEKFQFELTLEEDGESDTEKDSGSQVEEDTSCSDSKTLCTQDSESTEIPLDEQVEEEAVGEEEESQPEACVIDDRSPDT
Chain of Kappa-type opioid receptor (P41145 whole entry): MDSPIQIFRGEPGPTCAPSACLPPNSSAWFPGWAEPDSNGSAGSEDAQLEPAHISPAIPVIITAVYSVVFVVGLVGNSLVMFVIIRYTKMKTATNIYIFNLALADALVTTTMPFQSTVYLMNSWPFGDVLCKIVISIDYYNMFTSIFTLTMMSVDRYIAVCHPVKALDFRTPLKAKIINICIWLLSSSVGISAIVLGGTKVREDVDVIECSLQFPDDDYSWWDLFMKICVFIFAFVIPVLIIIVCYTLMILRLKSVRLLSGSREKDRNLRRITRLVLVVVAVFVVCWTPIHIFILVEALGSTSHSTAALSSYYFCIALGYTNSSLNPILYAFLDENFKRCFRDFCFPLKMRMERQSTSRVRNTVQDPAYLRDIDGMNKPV

Compound | AC50 [1] [µM] | AC50 [2] [µM] | AC50 [3] [µM] | AC50 [4] [µM] | AC50 [5] [µM] | AC50 [6] [µM] | AC50 [7] [µM] | AC50 [8] [µM] | AC50 [9] [µM] | AC50 [10] [µM] | AC50 [11] [µM] | AC50 [12] [µM] | AC50 [13] [µM]
NS(=O)(=O)c1ccc(N2CCCCS2(=O)=O)cc1 | > 30 | > 30 | > 30 | > 30 | > 30 | > 30 | > 30 | 21 | > 30 | > 30 |  |  | 
CCN(CC)CCCN(c1ccccc1)C1Cc2ccccc2C1 [APRINDINE] | > 30 | > 30 | > 30 | > 30 | > 30 | 2.89 | > 30 | 0.795 | > 10 | > 30 | > 30 | > 10 | > 10
CC(=O)OCC1=C(C(=O)O)N2C(=O)[C@@H](NC(=O)Cc3cccs3)[C@H]2SC1 [CEPHALOTHIN] | > 30 | > 30 | > 30 | > 30 | > 30 | > 30 | > 30 | > 30 | > 30 | > 30 | > 30 |  | 
CC(=O)OCC1=C(C(=O)O)N2C(=O)[C@@H](NC(=O)CSc3ccncc3)[C@H]2SC1 [CEPHAPIRIN] | > 10 | > 30 | > 10 |  | > 10 | > 10 | > 10 | > 10 | > 10 | > 30 | > 30 | > 10 | > 10
CC1=C(C(=O)O)N2C(=O)[C@@H](NC(=O)[C@H](N)C3=CCC=CC3)[C@H]2SC1 [CEPHRADINE] | > 30 | > 30 | > 30 | > 30 | > 10 | > 30 | > 30 | > 30 |  | > 30 | 22 |  | 
Nc1nc(Cl)nc2c1ncn2[C@@H]1O[C@H](CO)[C@@H](O)[C@@H]1F [CLOFARABINE] | > 30 | > 30 | > 30 |  | > 30 | > 30 | > 30 | > 10 | > 30 | 0.17 | > 30 | > 30 | > 30
CN(C)CCOC(=O)C(c1ccccc1)C1(O)CCCC1 (stereo not given) [CYCLOPENTOLATE] | > 10 | > 30 | > 10 |  | > 10 | > 10 | > 10 | > 10 | > 10 | > 30 | > 10 | > 10 | > 10
CCN1C(=O)NC(c2ccccc2)C1=O (stereo not given) [ETHOTOIN] | > 30 | > 30 | > 30 | > 30 | > 30 | > 30 | > 30 | > 30 | > 30 | > 30 | > 30 |  | 
CC(=O)OCC(=O)[C@@]1(O)CC[C@H]2[C@@H]3CCC4=CC(=O)CC[C@]4(C)[C@@]3(F)[C@@H](O)C[C@@]21C [FLUDROCORTISONE ACETATE] | > 30 | > 30 | > 30 | > 30 | > 30 |  |  | > 30 | > 30 | > 30 |  |  | 
Cc1ccc(S(=O)(=O)NC(=O)N[C@H]2[C@H]3CC[C@@](C)([C@H]2O)C3(C)C)cc1 [GLIBORNURIDE] | > 30 | > 30 | > 30 | > 30 | > 30 | > 30 | > 30 | > 30 | > 30 | > 30 | > 30 |  | 
CCC(=O)O[C@H](CC(=O)O)C[N+](C)(C)C [LEVOCARNITINE PROPIONATE] | > 30 | > 30 | > 30 | > 30 | > 30 | > 30 | > 30 | > 30 | > 30 | > 30 | > 30 |  | 
O=C(O)c1nn(Cc2ccc(Cl)cc2Cl)c2ccccc12 [LONIDAMINE] | > 30 | > 30 | > 30 | > 10 | > 30 | > 30 | > 30 | > 30 | > 30 | > 30 | > 30 |  | 
COc1nc(C)nc(Cl)c1N=C1NCCN1 [MOXONIDINE] | > 30 | > 30 | 6.5 | > 30 | > 30 |  |  | > 30 | > 30 | > 30 | > 30 |  | 
COC(=O)c1ccc2c(c1)NC(=O)/C2=C(\Nc1ccc(N(C)C(=O)CN2CCN(C)CC2)cc1)c1ccccc1 [NINTEDANIB] | > 30 | > 30 | > 30 | > 30 | > 10 | > 30 | > 30 | > 30 |  | > 30 | > 30 |  | 
CN1CCCN=C1/C=C/c1cccc(O)c1 [OXANTEL] | > 30 | > 30 | > 30 | > 30 | > 30 | > 30 | > 30 | 20 | > 30 | 17 | 10 |  | 
CS(=O)(=O)NC(=O)CCC/C=C\C[C@H]1C(=O)C[C@@H](O)[C@@H]1/C=C/[C@@H](O)COc1ccccc1 [SULPROSTONE] | > 30 | > 30 | > 30 | > 30 | > 30 | > 30 | > 30 | > 30 | > 30 | > 30 | > 30 |  | 
CCCCC[C@H](O)CC[C@@H]1[C@H]2Cc3cccc(OCC(=O)O)c3C[C@H]2C[C@H]1O [TREPROSTINIL] | > 30 | > 30 | > 30 | > 30 | > 30 | > 30 | > 30 | > 30 | > 30 | > 30 | > 30 |  | 
CCCCCCCC(=O)CC[C@@H]1[C@@H](C/C=C\CCCC(=O)O)[C@@H](O)C[C@H]1O [UNOPROSTONE] | > 30 | > 30 | > 30 | > 30 | > 30 | > 30 | > 30 | > 30 | > 30 | > 30 | > 30 |  | 
